Experimental data reported in patent publication US10912786B2, “Silyl monomers capable of multimerizing in an aqueous solution, and methods of using same” (Cornell University, priority 2011, dated 2021).

target: T1, recombinant human tryptase, beta, from lung (Homo sapiens, UniProt P20231); assay: Evaluation of inhibition of tryptase activity (Boc-Gln-Ala-Arg-AMC fluorescence); assay type: biochemical; conditions: exemplary silyl monomers; 1 nM tryptase; read-out: IC50 range
T1 construct: purchased Promega or Enzo Life Sciences G5631 or BML-SE418
T1 sequence (P20231 31-275): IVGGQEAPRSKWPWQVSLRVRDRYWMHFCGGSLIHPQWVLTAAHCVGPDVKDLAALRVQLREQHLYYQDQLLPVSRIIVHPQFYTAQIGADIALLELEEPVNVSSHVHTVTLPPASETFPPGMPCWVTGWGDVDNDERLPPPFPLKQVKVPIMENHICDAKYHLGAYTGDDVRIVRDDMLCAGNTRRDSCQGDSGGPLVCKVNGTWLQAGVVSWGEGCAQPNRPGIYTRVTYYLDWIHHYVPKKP
Description: Stock solutions of recombinant human tryptase, beta, from lung (Promega: catalog number G5631, or Enzo Life Sciences: catalog number BML-SE418) were made at 30 μM, in solution with 50 μM heparin sulfate and 500 mM NaCl. Multimer tryptase inhibitor stock solutions were made at 50 mM in DMSO. Drug plates were made at 5× the final concentration in assay buffer (50 mM HEPES, 150 mM NaCl, 100 μM EDTA, pH 7.4, 0.02% Tween-20). A final concentration of 1 nM tryptase was used. When required, drugs were diluted in assay buffer immediately before use in 10-fold serial dilutions. […] The release of fluorescent AMC was immediately measured every 60 seconds over 30-60 minutes at an excitation wavelength of 367 nm, monitoring emission at 468 nm on a Spectramax M5 (Molecular Devices) microplate reader. The Softmax Pro (Molecular Devices) and Graphpad prism software were used to determine Vmax, and concentration-response curve IC50s, respectively. As indicated below, IC50 ranges are provided for various exemplary monomers.

Structure (SMILES)	IC50 [µM]
C[Si](C)(O)c1cccc(-c2cccc(C(=O)N3CCC(c4cccc(CN)c4)CC3)c2)c1 [T35 Silyl]	10 to 65
C[Si](C)(O)c1ccc2cccc(C(=O)N3CCC(c4cccc(CN)c4)CC3)c2c1 [Target T11SILYL]	0.0001 to 1
C[Si](C)(O)c1cccc2[nH]c(C(=O)N3CCC(c4cccc(CN)c4)CC3)cc12 [Target T32Silyl]	10 to 65
C[Si](C)(O[Si](C)(C)c1cccc2sc(C(=O)N3CCC(c4cccc(CN)c4)CC3)cc12)c1cccc2sc(C(=O)N3CCC(c4cccc(CN)c4)CC3)cc12 [Target T46]	0.0001 to 1
C[Si](C)(O[Si](C)(C)c1cccc(CC(=O)N2CCC(c3cccc(CN)c3)CC2)c1)c1cccc(CC(=O)N2CCC(c3cccc(CN)c3)CC2)c1 [Target T47]	0.0001 to 1
C[Si](C)(/C=C/c1cccc(CC(=O)N2CCC(c3cccc(CN)c3)CC2)c1)O[Si](C)(C)/C=C/c1cccc(CC(=O)N2CCC(c3cccc(CN)c3)CC2)c1 [Target T47vinyl]	1 to 10
C[Si](C)(O[Si](C)(C)c1ccc(CC(=O)N2CCC(c3cccc(CN)c3)CC2)cc1)c1ccc(CC(=O)N2CCC(c3cccc(CN)c3)CC2)cc1 [Target T48]	1 to 10
C[Si](C)(O)c1cccc2ccc(C(=O)N3CCC4(CC3)COc3ccc(CN)cc34)cc12 [Target T52SPIRO]	0.0001 to 1
C[Si](C)(O)c1cccc2cc(C(=O)N3CCC(c4cc(CN)ccc4F)CC3)ccc12 [Target T120F]	0.0001 to 1
C[Si](C)(O)c1cccc(C(=O)N2CCC3(CC2)COc2ccc(CN)cc23)c1 [Target T129SPIRO]	0.0001 to 1
CSc1cc(C(=O)N2CCC(c3cccc(CN)c3)CC2)cc([Si](C)(C)O)c1 [Target T129Smethyl]	0.0001 to 1
Cn1cc(C(=O)N2CCC(c3cccc(CN)c3)CC2)c2ccc([Si](C)(C)O)cc21 [Target T152NMethyl]	10 to 65

Continued, values first:

IC50 [µM]	Structure (SMILES)
0.0001 to 1	C[Si](C)(O[Si](C)(C)c1cc2c(C(=O)N3CCC(c4cccc(CN)c4)CC3)cccc2s1)c1cc2c(C(=O)N3CCC(c4cccc(CN)c4)CC3)cccc2s1 [Target T49]
0.0001 to 1	C[Si](C)(O)c1cccc2ccc(C(=O)N3CCC(c4cccc(CN)c4)CC3)cc12 [Target T52]
1 to 10	C[Si](C)(O)Cc1cccc(C(=O)N2CCC(c3cccc(CN)c3)CC2)c1 [Target T122]
0.0001 to 1	C[Si](C)(O)c1cccc(C(=O)N2CCC(c3cccc(CN)c3)CC2)c1 [Target T129]
0.0001 to 1	C[Si](C)(O)c1ccc(C(=O)N2CCC(c3cccc(CN)c3)CC2)cc1 [Target T130]
0.0001 to 1	C[Si](C)(O)COc1ccc(C(=O)N2CCC(c3cccc(CN)c3)CC2)cc1 [Target T137, (4-(3-(aminomethyl)phenyl)piperidin-1-yl)(4-((hydroxydimethylsilyl)methoxy)-phenyl)methanone]
0.0001 to 1	C[Si](C)(O)COc1cccc(C(=O)N2CCC(c3cccc(CN)c3)CC2)c1 [Target T138, (4-(3-(aminomethyl)phenyl)-piperidin-1-yl)(3-((hydroxydimethylsilyl)-methoxy)phenyl)methanone]
0.0001 to 1	C[Si](C)(O)c1coc2ccc(C(=O)N3CCC(c4cccc(CN)c4)CC3)cc12 [Target T148]
1 to 10	C[Si](C)(O)c1csc2ccc(C(=O)N3CCC(c4cccc(CN)c4)CC3)cc12 [Target T149]
10 to 65	C[Si](C)(O)c1ccc2c(C(=O)N3CCC(c4cccc(CN)c4)CC3)c[nH]c2c1 [Target T152]

system: not listed separately; assay: Hydrolysis of disiloxane to silanol followed by NMR; assay type: physicochemical; conditions: expected from the effect of alkyl group size on silyl ether hydrolysis
Text: Without wishing to be bound by any theory, the estimated half-life for hydrolysis of the disiloxane depicted here:
[drawing 18] is 15 days based at pH5 in 90% DMSO/10% water at room temperature based upon NMR experiments. […] Thus in certain aqueous situations, the hydrolysis of the dimeric disiloxane to monomeric silanol may be essentially irreversible on the timescale relevant for the biological functions they are modulating.

Structure (SMILES)	half-life of hydrolysis relative to the depicted disiloxane
CC[Si](CC)(O[Si](CC)(CC)c1ccccc1)c1ccccc1 [diphenyltetraethyldisiloxane]	more than ten fold longer
